Test results published in patent publication US20260242478A1, “ANTIBODIES FOR TARGETING PSMA AND CD28 AND USES THEREOF” (Janux Therapeutics, Inc., priority 2023, published 2026).
Where no end group is shown, it is not given here.

What follows are substances tested on PSMA Fab (assay: Phage binding ELISA, PSMA Fab, with or without PSMA antigen (peptide-179 and peptide-180 libraries)). Conditions: peptide-180 library clonal phage; background (no Fab).
Chain of PSMA Fab (as listed by the source): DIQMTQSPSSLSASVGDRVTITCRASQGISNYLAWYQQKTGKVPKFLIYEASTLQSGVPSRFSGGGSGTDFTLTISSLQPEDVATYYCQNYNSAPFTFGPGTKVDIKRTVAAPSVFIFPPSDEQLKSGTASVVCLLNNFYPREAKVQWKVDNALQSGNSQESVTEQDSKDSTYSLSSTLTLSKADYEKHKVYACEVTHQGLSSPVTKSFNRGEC
Chain of PSMA Fab (as listed by the source): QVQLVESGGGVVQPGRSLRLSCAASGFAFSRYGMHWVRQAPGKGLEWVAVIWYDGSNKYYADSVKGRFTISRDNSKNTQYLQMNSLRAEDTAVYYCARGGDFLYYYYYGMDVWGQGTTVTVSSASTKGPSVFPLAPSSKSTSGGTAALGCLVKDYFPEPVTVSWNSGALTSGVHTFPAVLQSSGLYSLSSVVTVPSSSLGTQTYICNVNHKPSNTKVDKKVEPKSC
Description: (§1) Once the phage optimization libraries were completed, phage libraries were bio-panned using PSMA Fab loaded beads. Multiple rounds of panning were performed where bacteriophage was allowed to bind to PSMA Fab loaded beads. washed. eluted, and amplified. After panning, phage infected bacteria were plated out and colonies picked into 96 well blocks. Clonal phage was then amplified and separated from bacterial cells via centrifugation. Phage containing supemnatants were tested in binding ELISAs against PSMA Fab coated plates in the presence or absence of saturating concentrations of PSMA antigen. Phage able to bind PSMA Fab were selected for sequence analysis if the binding signal was reduced in the presence of PSMA.
Clonal phage were harvested as crude supernatants and screened via standard ELISAs. Briefly, biotinylated PSMA Fab was captured on neutravidin coated plates. Prior to the addition of clonal phage. wells were incubated with blocking buffer and PSMA antigen or blocking buffer alone. Without washing or aspirating, clonal phage supernatants were then added to the wells and incubated for a short time. Wells were then washed followed by detection of bound phage using a horse radish conjugated anti-M13 antibody. Clonal phage of interest were then sent for sequence analysis.
as §1, with “beads, washed,” for “beads. washed.”, “supernatants” for “supemnatants”
For Phage-2796 (LNNWCTPAWMCVGY), the “Phage binding ELISA Background signal” value was 0.0697. “Phage-2840 (EPQWCIPKWMCDHM; not fully specified; cysteine pairing not given here)” was tested, and the “Phage binding ELISA Background signal” value was 0.0612. With “Phage-2854 (VHIMCKPAWMCLGF; not fully specified; cysteine pairing not given here)” the “Phage binding ELISA Background signal” value was 0.0917. Phage-2865 (MSPLCKPVWMCAGF) was tested, and the “Phage binding ELISA Background signal” value was 0.0586. In the case of Phage-2802 (TPKWCTPAWMCVVS), the “Phage binding ELISA Background signal” value is reported as 0.0829. With “Phage-2850 (VNIRCEPAWMCMGF; not fully specified; cysteine pairing not given here)” the “Phage binding ELISA Background signal” value was 0.0727. Phage-2813 (FSKLCTPPWMCSVS) was tested, and the “Phage binding ELISA Background signal” value was 0.0586. In the case of “Phage-2861 (WDRLCIPAWMCSGF; not fully specified; cysteine pairing not given here)”, the “Phage binding ELISA Background signal” value is reported as 0.0903. With “Phage-2838 (HPKLCTPEWMCVIQ; not fully specified; cysteine pairing not given here)” the “Phage binding ELISA Background signal” value was 0.0666. With Phage-2867 (VLPMCSPPWMCIGL) the “Phage binding ELISA Background signal” value was 0.0631. In the case of Phage-2868 (EPIRCVPQWMCVGF), the “Phage binding ELISA Background signal” value is reported as 0.0882. With “Phage-2858 (TQAMCKPAWMCQGF; not fully specified; cysteine pairing not given here)” the “Phage binding ELISA Background signal” value was 0.0585. In the case of “Phage-2856 (VQRMCEPSWMCFGF; not fully specified; cysteine pairing not given here)”, the “Phage binding ELISA Background signal” value is reported as 0.0631. In the case of Phage-2805 (MMHWCTPPWMCEFS), the “Phage binding ELISA Background signal” value is reported as 0.0597. With “Phage-2848 (VMTVCKPAWMCTGF; not fully specified; cysteine pairing not given here)” the “Phage binding ELISA Background signal” value was 0.1338. Phage-2807 (WENWCIPQWMCGTA) was tested, and the “Phage binding ELISA Background signal” value was 0.1629. For “Phage-2845 (WDMLCRPAWMCEGF; not fully specified; cysteine pairing not given here)”, the “Phage binding ELISA Background signal” value was 0.0711. With “Phage-2846 (WEVRCVPEWMCVGF; not fully specified; cysteine pairing not given here)” the “Phage binding ELISA Background signal” value was 0.0615. For Phage-2804 (EGKWCTPTWMCQGF), the “Phage binding ELISA Background signal” value was 0.0669. “Phage-2837 (VDRWCTPPWMCDWQ; cysteine pairing not given here; also: large carrier left off)” was tested, and the “Phage binding ELISA Background signal” value was 0.0583. For “Phage-2841 (ESIRCTPAWMCVEM; not fully specified; cysteine pairing not given here)”, the “Phage binding ELISA Background signal” value was 0.0625. For Phage-2866 (TSPACVPSWMCVGF), the “Phage binding ELISA Background signal” value was 0.0552.
